Numbers after ± are expanded uncertainties.
Assay: xn = mol fraction of the nth substance listed
Conditions: 101 kPa, Liquid; for viscosity: Capillary tube (Ostwald / Ubbelohde) method

CCOC(=O)OCC [diethyl carbonate] + Cc1ccccc1
viscosity (298.15 K, x1 = 0.1014): 0.573 ± 0.007 mPa·s
viscosity (298.15 K, x1 = 0.1984): 0.59 ± 0.007 mPa·s
viscosity (298.15 K, x1 = 0.3006): 0.608 ± 0.007 mPa·s
viscosity (298.15 K, x1 = 0.4024): 0.627 ± 0.007 mPa·s
viscosity (298.15 K, x1 = 0.5212): 0.649 ± 0.007 mPa·s
viscosity (298.15 K, x1 = 0.6022): 0.664 ± 0.007 mPa·s
viscosity (298.15 K, x1 = 0.7016): 0.684 ± 0.007 mPa·s
viscosity (298.15 K, x1 = 0.7995): 0.702 ± 0.007 mPa·s
viscosity (298.15 K, x1 = 0.8975): 0.722 ± 0.008 mPa·s
viscosity (298.15 K, x1 = 1): 0.746 ± 0.008 mPa·s
mass density (298.15 K, x1 = 0.1014): 874.5 ± 1.9 kg/m3
mass density (298.15 K, x1 = 0.1984): 885.94 ± 1.8 kg/m3
mass density (298.15 K, x1 = 0.3006): 897.67 ± 1.7 kg/m3
mass density (298.15 K, x1 = 0.4024): 908.97 ± 1.6 kg/m3
mass density (298.15 K, x1 = 0.5212): 921.72 ± 1.5 kg/m3
mass density (298.15 K, x1 = 0.6022): 930.18 ± 1.4 kg/m3
mass density (298.15 K, x1 = 0.7016): 940.28 ± 1.3 kg/m3
mass density (298.15 K, x1 = 0.7995): 949.95 ± 1.2 kg/m3
mass density (298.15 K, x1 = 0.8975): 959.36 ± 1.1 kg/m3
mass density (298.15 K, x1 = 1): 968.97 ± 1.1 kg/m3
viscosity (303.15 K, x1 = 0.1014): 0.542 ± 0.007 mPa·s
viscosity (303.15 K, x1 = 0.1984): 0.557 ± 0.007 mPa·s
viscosity (303.15 K, x1 = 0.3006): 0.573 ± 0.007 mPa·s
viscosity (303.15 K, x1 = 0.4024): 0.59 ± 0.007 mPa·s
viscosity (303.15 K, x1 = 0.5212): 0.609 ± 0.007 mPa·s
viscosity (303.15 K, x1 = 0.6022): 0.622 ± 0.007 mPa·s
viscosity (303.15 K, x1 = 0.7016): 0.639 ± 0.007 mPa·s
viscosity (303.15 K, x1 = 0.7995): 0.657 ± 0.007 mPa·s
viscosity (303.15 K, x1 = 0.8975): 0.674 ± 0.007 mPa·s
viscosity (303.15 K, x1 = 1): 0.695 ± 0.008 mPa·s
mass density (303.15 K, x1 = 0.1014): 870.46 ± 2 kg/m3
mass density (303.15 K, x1 = 0.1984): 881.62 ± 1.9 kg/m3
mass density (303.15 K, x1 = 0.3006): 893.06 ± 1.8 kg/m3
mass density (303.15 K, x1 = 0.4024): 904.06 ± 1.6 kg/m3
mass density (303.15 K, x1 = 0.5212): 916.47 ± 1.5 kg/m3
mass density (303.15 K, x1 = 0.6022): 924.71 ± 1.5 kg/m3
mass density (303.15 K, x1 = 0.7016): 934.52 ± 1.4 kg/m3
mass density (303.15 K, x1 = 0.7995): 943.93 ± 1.3 kg/m3
mass density (303.15 K, x1 = 0.8975): 953.08 ± 1.2 kg/m3
mass density (303.15 K, x1 = 1): 962.39 ± 1.1 kg/m3
viscosity (313.15 K, x1 = 0.1014): 0.484 ± 0.007 mPa·s
viscosity (313.15 K, x1 = 0.1984): 0.497 ± 0.007 mPa·s
viscosity (313.15 K, x1 = 0.3006): 0.51 ± 0.007 mPa·s
viscosity (313.15 K, x1 = 0.4024): 0.523 ± 0.007 mPa·s
viscosity (313.15 K, x1 = 0.5212): 0.539 ± 0.007 mPa·s
viscosity (313.15 K, x1 = 0.6022): 0.55 ± 0.007 mPa·s
viscosity (313.15 K, x1 = 0.7016): 0.564 ± 0.007 mPa·s
viscosity (313.15 K, x1 = 0.7995): 0.579 ± 0.007 mPa·s
viscosity (313.15 K, x1 = 0.8975): 0.593 ± 0.007 mPa·s
viscosity (313.15 K, x1 = 1): 0.61 ± 0.007 mPa·s
mass density (313.15 K, x1 = 0.1014): 860.95 ± 2 kg/m3
mass density (313.15 K, x1 = 0.1984): 872.04 ± 1.9 kg/m3
mass density (313.15 K, x1 = 0.3006): 883.39 ± 1.8 kg/m3
mass density (313.15 K, x1 = 0.4024): 894.33 ± 1.7 kg/m3
mass density (313.15 K, x1 = 0.5212): 906.66 ± 1.6 kg/m3
mass density (313.15 K, x1 = 0.6022): 914.85 ± 1.6 kg/m3
mass density (313.15 K, x1 = 0.7016): 924.6 ± 1.5 kg/m3
mass density (313.15 K, x1 = 0.7995): 933.95 ± 1.4 kg/m3
mass density (313.15 K, x1 = 0.8975): 943.04 ± 1.3 kg/m3
mass density (313.15 K, x1 = 1): 952.32 ± 1.2 kg/m3
viscosity (323.15 K, x1 = 0.1014): 0.434 ± 0.007 mPa·s
viscosity (323.15 K, x1 = 0.1984): 0.445 ± 0.007 mPa·s
viscosity (323.15 K, x1 = 0.3006): 0.457 ± 0.007 mPa·s
viscosity (323.15 K, x1 = 0.4024): 0.468 ± 0.007 mPa·s
viscosity (323.15 K, x1 = 0.5212): 0.481 ± 0.007 mPa·s
viscosity (323.15 K, x1 = 0.6022): 0.491 ± 0.007 mPa·s
viscosity (323.15 K, x1 = 0.7016): 0.503 ± 0.007 mPa·s
viscosity (323.15 K, x1 = 0.7995): 0.515 ± 0.007 mPa·s
viscosity (323.15 K, x1 = 0.8975): 0.527 ± 0.007 mPa·s
viscosity (323.15 K, x1 = 1): 0.541 ± 0.007 mPa·s
mass density (323.15 K, x1 = 0.1014): 850.49 ± 2.1 kg/m3
mass density (323.15 K, x1 = 0.1984): 861.33 ± 2 kg/m3
mass density (323.15 K, x1 = 0.3006): 872.43 ± 1.9 kg/m3
mass density (323.15 K, x1 = 0.4024): 883.11 ± 1.9 kg/m3
mass density (323.15 K, x1 = 0.5212): 895.17 ± 1.7 kg/m3
mass density (323.15 K, x1 = 0.6022): 903.16 ± 1.7 kg/m3
mass density (323.15 K, x1 = 0.7016): 912.68 ± 1.6 kg/m3
mass density (323.15 K, x1 = 0.7995): 921.81 ± 1.5 kg/m3
mass density (323.15 K, x1 = 0.8975): 930.72 ± 1.4 kg/m3
mass density (323.15 K, x1 = 1): 939.78 ± 1.3 kg/m3

Source: the NIST ThermoML archive (doi:10.1021/je050414d)
